{"source": "patent US20150150892A1", "about": "“METHODS AND PRODUCTS RELATED TO LUNG CANCER” (Massachusetts Institute of Technology, priority 2012, published 2015)", "key": {"[1]": {"test_system": "NF-κB target genes in H2122 and H2009 cell lines", "assay": "QPCR of NF-κB target genes in human NSCLC cell lines", "format": "cell-based", "details": "10 nM Bortezomib, 24 hours", "description": "FIG. 8: Bortezomib inhibits NF-κB signaling in human NSCLC cells. H2122 (KRASG12C;TP53c176F/Q16L) (8A) and H2009 (KRASG12A;TP53R273L) (8B) cell lines were treated with vehicle control or 10 nM Bortezomib for 24 hours. NF-κB target gene expression was measured by QPCR. Error bars are s.d. (n=3). N.D. denotes not detectable. Mutation information is from the Sanger COSMIC database.\nRNA was purified using TRIzol (Invitrogen), according to the manufacturer's instructions. One microgram of RNA was reverse transcribed using the High-Capacity cDNA Reverse Transcription Kit (Applied Biosystems). Real-time PCR (quantitative PCR) amplification was performed using Taqman probes (Applied Biosystems). Data were normalized to the Gapdh (mouse) or GAPDH (human) levels."}, "[2]": {"test_system": "KP and KP^M cell lines", "assay": "Cell viability assay (Cell Titer Aqueous Kit)", "format": "cell-based, mouse", "details": "increasing doses, 24 hours, KP and KP^M vs 3TZ and LKR13 cells", "description": "FIG. 2: Bortezomib sensitivity correlates with basal NF-κB activity in KP lung adenocarcinoma cell lines. […] 3TZ, diamond; LKR13, triangle; KP, solid lines; KPM, dashed lines. Error bars are SD (n=3). (2B) lung cancer cell lines with high basal NF-κB activity were sensitive to bortezomib. NF-κB p65 DNA-binding activity was determined by ELISA from nuclear extracts of KP cell lines and LKR13 cells (set as 1). Relative viability was measured after 5 nM bortezomib treatment, as in 2A. FIG. 17: Bay-117082 induces cell death In KP cells. […] (17B) Bay-117082 induces apoptosis in KP cells. Cells were treated with 10IJM Bay-117082 for 48 hours. […] Cell culture conditions were as described recently (30)."}, "[3]": {"test_system": "KP lung tumors", "assay": "CC3 immunohistochemistry in KP lung tumors", "format": "in vivo, mouse", "description": "FIG. 4: Bortezomib induces apoptosis in KP lung tumors. (4A and 4B) H&E and CC3 immunohistochemistry staining (×200) in vehicle control- and bortezomib-treated KP (4A) and K (4B) lung tumors. (4C and 4D) quantification of CC3-positive cells in bortezomib-treated KP (4C) and K (4D) lung tumors at indicated time points. “0 hour” represents vehicle control-treated tumors. Error bars are SD (n>10 for each time point).\nFIG. 5: Bortezomib increases survival in KP mice. (5A and 5B) Kaplan-Meier survival curve of vehicle control and bortezomib-treated KP (5A) and K (5B) mice. Arrows indicate weekly 1 mg/kg bortezomib regimen. (5C) quantification of lung tumor volume of control- and bortezomib-treated KP mice. From 10 weeks after Adeno-Cre infection, lungs were imaged by microCT to measure individual tumor volumes (n=4). Data points represent means of fold change and SD relative to 10 weeks (set to 1). Arrows indicate bortezomib injection. D, CC3 staining (×200) in lung tumors receiving 3 doses of control (“C”) and 1 final dose of bortezomib (“B,” left) or 4 doses of bortezomib (right). Tumors were harvested 48 hours after the last treatment (n=4).\nFIG. 18: Bay-117082 induces apoptosis in KP lung tumors. (18A), H&E and cleaved caspase 3 (CC3) immunohistochemistry staining (200×) in vehicle control and Bay-117082 treated KP lung tumors (10 mg/kg, 48 hrs). (18B) Quantification of CC3 positive cells. Error bars are s.d. (p<0.05).\nMice were sacrificed by carbon dioxide asphyxiation. Lungs were inflated with 4% formalin (neutral buffered formalin), fixed overnight, and transferred to 70% ethanol. Lung lobes were embedded in paraffin and sectioned at 4 μm and stained with H&E for tumor pathologic study. For staining with anti-CC3 antibodies (#9661; Cell Signaling), lung tumor sections were dewaxed, rehydrated, and subjected to high-temperature antigen retrieval—10 minutes of boiling in a pressure cooker in 0.01 M citrate buffer, pH 6.0. […] The number of positive cells per tumor area was quantified using Bioquant software from >10 tumors in ≧3 mice per group (2)."}, "[4]": {"test_system": "KrasLSL-G12D/wt mice", "assay": "Kaplan-Meier survival of K mice", "format": "in vivo, mouse", "details": "KrasLSL-G12D/wt cohort, weekly 1 mg/kg bortezomib; P=0.36", "experimental": "To initiate lung tumors, cohorts of K or KP mice of 129svJae background were infected with 2.5×10^7 plaque-forming units of Adeno-Cre (University of Iowa) by intranasal inhalation, as described previously (2, 28). Mice were given bortezomib (LC Labs) in PBS [0.5% dimethylsulfoxide (DMSO)] at 1 mg/kg body weight i.v., as indicated. Bay-117082 (CalBiochem) was dissolved in DMSO, diluted in PBS as a fine suspension, and injected at 10 mg/kg body weight i.p., as indicated.\nUsing a cohort of KP mice, we treated tumor-bearing animals 8 weeks after Adeno-Cre infection with bortezomib once a week for 4 weeks (FIG. 10A)."}, "[5]": {"test_system": "Kras^G120;p53^fl/fl (high NF-κB) mice", "assay": "FIG. 19 study, mice with high NF-κB", "format": "in vivo, mouse", "details": "1 kg/mg IV bortezomib", "description": "(§1) FIG. 19 is a schetaic diagram showing the experimental conditions and a set of graphs showing the results. Two sets of mice were treated with […] IV bortezomib, Kras^G120;p53^fl/fl (high NF-κB, top panel) or KrasL^St-G12Dwt (low NF-κB, bottom panel). […] The relapsed tumors have high Hmcgs2.\n(§2) Mice having either high or low levels of NF-κB were treated with […] IV bortezomib and examined for tumor progression, apoptosis and survival. The mice are Kras^G120;p53^fl/fl (high NF-κB) or KrasL^St-G12Dwt (low NF-κB). […] The relapsed tumors have high Hmcgs2."}, "[6]": {"test_system": "KrasL^St-G12Dwt (low NF-κB) mice", "assay": "FIG. 19 study, mice with low NF-κB", "format": "in vivo, mouse", "details": "1 mg/kg IV bortezomib", "description": "as §1, §2"}}}
{"smiles": "CC(C)C[C@H](NC(=O)[C@H](Cc1ccccc1)NC(=O)c1cnccn1)B(O)O", "note": "[bortezomib, N-(2-pyrazine) carbonyl-L-phenylalanine-L-leucine boronic acid]", "values": [{"measurement": "expression of NF-κB target genes MYC, BCL2, XIAP", "setting": "[1]", "value": "downregulated"}, {"measurement": "sensitivity in cell viability dose-response", "setting": "[2]", "value": "higher sensitivity"}, {"measurement": "CC3 staining after a final dose in pretreated tumors", "setting": "[3]; KP mice, 3 previous doses of bortezomib, sacrificed 48 hours after final dose", "value": "no longer demonstrated significant CC3 staining"}, {"measurement": "number of apoptotic (CC3) cells", "setting": "[3]; KP tumors, 48 hours after a single dose", "value": "increase in the number of apoptotic cells"}, {"measurement": "time course of CC3+ cell number", "setting": "[3]; KP tumors, single dose, time-course", "value": "peaked at 24 and 48 hours post treatment and diminished at 96 hours"}, {"measurement": "survival", "setting": "[4]", "value": "no improvement in survival"}, {"measurement": "tumor response, apoptosis and survival (FIG. 19)", "setting": "[5]", "value": "rapid tumor progression, apoptosis, and increased survival"}, {"measurement": "tumor response, apoptosis and survival (FIG. 19)", "setting": "[6]", "value": "no tumor regression, apoptosis and no survival advantage"}]}
